In the assay the test system is MDA-MB-468 multi-cell spheroids, viability. As to the kind of experiment: Anticancer human tumor MDA-MB-468 cell line growth inhibition [IpAb].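 For all read-outs here: spheroids exposed to agents for seven days.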 The conditions noted are these: for viability, T/C: stronger effect = lower value. The source says:
Combinatorial screen of targeted agents with ipatasertib and abemaciclib in multi-cell type tumor spheroids
A high-throughput screen of multi-cell type tumor spheroids was designed to identify active combinations of targeted small molecules and ipatasertib or abemaciclib. Complex spheroids include a stromal component modeled by human endothelial cells (HUVEC) and fibroblasts modeled by human mesenchymal stem cells (MSCs). The concentration ranges selected for each drug and investigational agent were based upon clinically achievable concentrations if the clinical Cmax of the agent was known.
Compounds. The drugs and investigational agents: ipatasertib (NSC767898), abemaciclib(NSC768073), selumetinib (NSC741078), trametinib (758246), adavosertib (NSC754352), everolimus (NSC733504), sapanisertib (NSC764658), vemurafenib (NSC761431), venetoclax (NSC766270), copanlisib (NSC809693), apelisib (NSC765974), palbociblib (NSC758247), vemurafenib (NSC761431), dabrafenib (NSC764134), ravoxertinib (NSC781343), BMS-387032 (NSC767048), sotorasib (NSC818433), talazoparib (NSC767125) and afursertib (NSC778305), were obtained from the National Cancer Institute (NCI) Developmental Therapeutics Program Chemical Repository. The FDA-approved anticancer drug set is available from the NCI Developmental Therapeutics Program. […] The stock solutions were prepared in dimethyl sulfoxide (DMSO, Sigma-Aldrich, St. Louis, MO, cat. D2650) at 800-fold the tested concentration and stored at -70 degrees C prior to their use. All drugs and investigational agents were tested over a range starting from a high concentration at or near the clinical Cmax and decreasing in half-log increments. If the clinical Cmax for an agent had not been determined, the highest concentration tested was 10 microM.
NCI60 Cell Culture. NCI60 cell lines were obtained from the NCI Developmental Therapeutics Program Tumor Repository. For each lot of cells, the Repository performed Applied Biosystems AmpFLSTR Identifiler testing with PCR amplification to confirm consistency with the published Identifier STR profile for each cell line. Cells were kept in continuous culture for no more than 20 passages. The optimal seeding densities for each of the cell lines at each time point assessed were determined prior to performing the concentration response studies. Briefly, the NCI60 human tumor lines were grown as monolayers in RPMI 1640 medium supplemented with 10% FBS and 2 mmol/L L-glutamine.
An additional 9 lines were from the NCI60 cell line panel including MDA-MB-231 breast carcinoma, MDA-MB-468 breast carcinoma, MCF7 breast carcinoma, Hs578T breast carcinoma, MALME-3M melanoma, SK-MEL-2 melanoma, SK-OV-3 ovarian carcinoma, DU-145 prostate carcinoma, PC-3 prostate carcinoma, all cell lines along with major genetic alterations are listed on Table 2. Pooled donor human umbilical vein endothelial cells (HUVEC, Lonza, cat. CC-2519) and human mesenchymal stem cells (hMSC, Lonza, cat. PT-2501) were purchased from Lonza (Walkersville, MD).
PDMR cell lines were grown in complete medium (DC medium): Dulbecco's modified Eagle's medium (DMEM)/F12 supplemented with 5% fetal bovine serum (FBS), 2 mM L-glutamine, 100 U/mL penicillin and 100 µg/ml streptomycin, 0.4 µg/ml hydrocortisone, 10 ng/ml epidermal growth factor (EGF) recombinant human protein, 24 µg/mL adenine, and 0.1 mg/mL primocin. During culture from frozen stock vials, PDMR cells were cultured in the same medium containing 10 µM Y-27632 (see Table 3). The PDCs were cultured in complete DMEM/F12 media without 10 microM Y-27632 dihydrochloride for at least two passages prior to the screen. The pooled donor HUVEC and hMSC were cultured in endothelial cell growth medium 2 (PromoCell, Heidelberg, Germany, cat. C-22011) and mesenchymal stem cell growth medium 2 (PromoCell, cat. C-28009), respectively. For all experiments, HUVEC and hMSC were used at passages </=5.
[…]

[1] abbreviates: curve of first compound, second compound 0.01 µM.
Setting [2] is: curve of first compound, second compound 0.0316 µM.
Where [3] appears, read: curve of first compound, second compound 0.1 µM.
Where [4] appears, read: curve of first compound, second compound 0.316 µM.
Where [5] appears, read: curve of first compound, second compound 1 µM.
Where [6] appears, read: second compound 0.01 µM, first compound 0.0316 µM.
Where [7] appears, read: second compound 0.01 µM, first compound 0.1 µM.
[8] abbreviates: second compound 0.01 µM, first compound 0.316 µM.
Where [9] appears, read: second compound 0.01 µM, first compound 1 µM.
The mark [10] stands for this setting: second compound 0.01 µM, first compound 3.16 µM.
Setting [11] is: second compound 0.01 µM, first compound 10 µM.
Setting [12] is: second compound 0.0316 µM, first compound 0.0316 µM.
[13] abbreviates: second compound 0.0316 µM, first compound 0.1 µM.
Setting [14] is: second compound 0.0316 µM, first compound 0.316 µM.
The mark [15] stands for this setting: second compound 0.0316 µM, first compound 1 µM.
Where [16] appears, read: second compound 0.0316 µM, first compound 3.16 µM.
Where [17] appears, read: second compound 0.0316 µM, first compound 10 µM.
Where [18] appears, read: second compound 0.1 µM, first compound 0.0316 µM.
Setting [19] is: second compound 0.1 µM, first compound 0.1 µM.
Setting [20] is: second compound 0.1 µM, first compound 0.316 µM.
Setting [21] is: second compound 0.1 µM, first compound 1 µM.
Setting [22] is: second compound 0.1 µM, first compound 3.16 µM.
The mark [23] stands for this setting: second compound 0.1 µM, first compound 10 µM.
Where [24] appears, read: second compound 0.316 µM, first compound 0.0316 µM.
The mark [25] stands for this setting: second compound 0.316 µM, first compound 0.1 µM.
[26] abbreviates: second compound 0.316 µM, first compound 0.316 µM.
The mark [27] stands for this setting: second compound 0.316 µM, first compound 1 µM.
Setting [28] is: second compound 0.316 µM, first compound 3.16 µM.
[29] abbreviates: second compound 0.316 µM, first compound 10 µM.
Setting [30] is: second compound 1 µM, first compound 0.0316 µM.
Setting [31] is: second compound 1 µM, first compound 0.1 µM.
[32] abbreviates: second compound 1 µM, first compound 0.316 µM.
Where [33] appears, read: second compound 1 µM, first compound 1 µM.
The mark [34] stands for this setting: second compound 1 µM, first compound 3.16 µM.
Setting [35] is: second compound 1 µM, first compound 10 µM.

Values joined by “and” are separate entries in the source; they are usually repeats but may differ in a detail not shown here. Identical values can stand only once.

Our source for the viability, T/C and IC50 values is PubChem BioAssay AID2060326 (Molecular Pharmacology Branch, DTP, NCI, 2025).

Usually viability, T/C stands for the ratio of treated to control. As usually defined, the IC50 is the concentration at which inhibition is half-maximal. As to `CC(C)NCC(C(=O)N1CCN(c2ncnc3c2C(C)CC3O)CC1)c1ccc(Cl)cc1` (configuration not stated), the viability, T/C is 91.9% [middle of 13 runs] (compound 0.1 µM), 54.4% [middle of 13 runs] (compound 1 µM), 35.1% [middle of 13 runs] (compound 3.16 µM) and 18.4% [middle of 13 runs] (compound 10 µM). Also, the IC50 (compound alone, run of 05/18/2021) was 1.25 µM [middle of 12 runs].

As for `C=CC(=O)N1CCN(c2nc(=O)n(-c3c(C)ccnc3C(C)C)c3nc(-c4c(O)cccc4F)c(F)cc23)C(C)C1` (configuration not stated) + CCN1CCN(Cc2ccc(Nc3ncc(F)c(-c4cc(F)c5nc(C)n(C(C)C)c5c4)n3)nc2)CC1, the IC50 was 7.47 µM under setting [1]; 7.21 µM under setting [2]; 6.74 µM under setting [3]; 6.44 µM under setting [4]; 7.15 µM under setting [5]. The viability, T/C by setting is: under setting [6], 109%; under setting [7], 117%; under setting [8], 110%; under setting [9], 113%; under setting [10], 93.2%; under setting [11], 35.1%. Further, the viability, T/C under setting [12] is 98.6%; the viability, T/C under setting [13] was 90.9%; the viability, T/C under setting [14] was 108%; the viability, T/C under setting [15] was 91.7%; the viability, T/C under setting [16] is 79.8%; the viability, T/C under setting [17] is 38.3%. In addition, the viability, T/C under setting [18] was 101%; the viability, T/C under setting [19] was 106%; the viability, T/C under setting [20] was 100%; the viability, T/C under setting [21] is 110%; the viability, T/C under setting [22] is 97.6%; the viability, T/C under setting [23] is 24.8%. The viability, T/C is 103% under setting [24]; 108% under setting [25]; 116% under setting [26]; 103% under setting [27]; 83.7% under setting [28]; 29.2% under setting [29]. For the same molecule, the viability, T/C was 84.2% under setting [30]; 73% under setting [31]; 81.8% under setting [32]; 82.7% under setting [33]; 74.7% under setting [34]; 39.6% under setting [35].

Turning to `CCCS(=O)(=O)Nc1ccc(F)c(C(=O)c2c[nH]c3ncc(-c4ccc(Cl)cc4)cc23)c1F` + CCN1CCN(Cc2ccc(Nc3ncc(F)c(-c4cc(F)c5nc(C)n(C(C)C)c5c4)n3)nc2)CC1, the IC50 runs as follows: under setting [1], more than 10 µM; under setting [2], more than 10 µM; under setting [3], more than 10 µM; under setting [4], more than 10 µM; under setting [5], 5.03 µM. Also, the viability, T/C was 89.8% under setting [6]; 88.3% under setting [7]; 101% under setting [8]; 124% under setting [9]; 108% under setting [10]; 88.7% under setting [11]. Also, the viability, T/C runs as follows: under setting [12], 104%; under setting [13], 91.1%; under setting [14], 99.1%; under setting [15], 113%; under setting [16], 79.5%; under setting [17], 57.5%. For the same molecule, the viability, T/C runs as follows: under setting [18], 106%; under setting [19], 114%; under setting [20], 104%; under setting [21], 117%; under setting [22], 99.5%; under setting [23], 51.4%. Besides, the viability, T/C under setting [24] is 102%; the viability, T/C under setting [25] is 103%; the viability, T/C under setting [26] is 104%; the viability, T/C under setting [27] is 98.4%; the viability, T/C under setting [28] was 111%; the viability, T/C under setting [29] is 64.1%. Besides, the viability, T/C under setting [30] is 76.9%; the viability, T/C under setting [31] is 78.4%; the viability, T/C under setting [32] was 85.7%; the viability, T/C under setting [33] is 74.2%; the viability, T/C under setting [34] was 66.5%; the viability, T/C under setting [35] was 26.2%.

`Cc1nc(NC(=O)N2CCCC2C(N)=O)sc1-c1ccnc(C(C)(C)C(F)(F)F)c1` (configuration not stated): the viability, T/C was 86.9% and 91.9% (compound 0.0316 µM); 93% and 82.5% (compound 0.1 µM); 79.2% and 88.1% (compound 0.316 µM); 64.3% and 95% (compound 1 µM); 84% and 94.3% (compound 3.16 µM); 25.2% and 31.6% (compound 10 µM). Also, the IC50 (curve of compound) is 6.02 µM and 6.99 µM.
